The values below come from US10611742B2, “4-oxo-4,5-dihydrothiazole derivative, preparation method and use thereof” (Institute of Pharmacology and Toxicology Academy of …, priority 2015, dated 2020).

Format in all cases: cell-based
For data set [1], the system named is enterovirus EV71 (SZ-98 strain). Put plainly: anti-EV71 activity, therapeutic effect on Vero cell (CPE inhibition, Celltiter Glo). The note with it: EV71 (SZ-98 strain), therapeutic effect on Vero cell; read-out: IC50. The protocol:
(§1) Test principle: Vero cell, MRC-5 cell, and RD cell were used as host of virus, respectively, and samples were tested for their inhibition of cytopathic effect (CPE) caused by virus.
(§2) 1. Virus strain: enterovirus EV71 (SZ-98 strain, provided by Chinese Center for Disease Control and Prevention), Vero cell (provided by the Cell Bank of Chinese Academy of Sciences), MRC-5 cell (provided by the Cell Bank of Chinese Academy of Sciences), and RD cell (provided by the Cell Bank of Chinese Academy of Sciences), were subjected to passage culture, respectively, and stored at −80° C.
(§3) 2. Sample treatment: a test sample (Compounds 1-14 and positive control agent) was dissolved in dimethyl sulfoxide (DMSO) to prepare a stock solution, which was stored at −20° C. The stock solution was diluted with DMEM medium (Gibco Company) containing 2% fetal bovine serum (Gibco Company) to prepare a 100 μM solution before use, and was 3-fold diluted with the medium to obtain 8 diluted concentrates.
(§4) 3. Positive control agent: Con1 (pitstop2) (purchased from AmyJet Scientific Inc., Abcam), a broad-spectrum antiviral inhibitor.
(§5) 4. Test method: • 4.1 Therapeutic effect: the cells were seeded on a 96-well culture plate, and cultured in a 5% CO2, 37° C. incubator for 24 h. About 100 TCID50 enterovirus EV71 was added to each well. After adsorption at 37° C. for 1 h, the virus solution was discarded, and a drug was added at different diluted concentrates, respectively. Meanwhile, virus control and cell control were set, and cultured at 37° C. […] The virus-inhibition rate of a sample at each concentration was calculated based on the chemiluminescent value, the sample concentration was used as abscissa, and the inhibition rate was used as ordinate, and S-Curve fitting was performed by using Origin software. Half maximal inhibitory concentration (IC50) of each sample for enterovirus EV71 was calculated based on the fitting results. Median toxic concentration (TC50) was determined by the same method. […] To each well, a drug was added at a different diluted concentration, then the cells were cultured at 37° C. for 2 h, and then the drug was discarded. About 100 TCID50 enterovirus EV71 was added to each well, adsorbed at 37° C. for 1.5 h, then the virus solution was discarded, and a maintenance medium free of drug was added. Meanwhile, virus control and cell control were set, and cultured at 37° C. […] The virus-inhibition rate of a sample at each concentration was calculated, and half maximal inhibitory concentration (IC50), median toxic concentration (TC50), and selection index (SI) of each sample for enterovirus EV71 were calculated. The methods for determining and calculating them were as described in Item 4.1
On the technique in general: In ATP-based viability assays light output follows the ATP content of the culture.

The test system is the same in data set [2]. Put plainly: anti-EV71 activity, therapeutic effect on MRC-5 cell (CPE inhibition, Celltiter Glo). As to conditions: MRC5. The protocol: as §1, §2, §3, §4, §5
For data set [3] the test system is unchanged. Description: anti-EV71 activity, therapeutic effect on RD cell (CPE inhibition, Celltiter Glo). The protocol:
as §1, §2, §3, §4, §5

The test system is the same in data set [4]. Description: anti-EV71 activity, preventive effect on Vero cell (CPE inhibition). The protocol: as §1, §2, §3, §4, §5
Data set [5] has the same test system. Put plainly: anti-EV71 activity, preventive effect on RD cell (CPE inhibition). The protocol:
as §1, §2, §3, §4, §5

A short description of data set [6]: median toxic concentration on Vero cell. As to conditions: African green monkey, Vero cells; for CC50: Table 1-1 (therapeutic effect), read-out: TC50 (the source's name); for CC50 at 2 h: Table 2-1 (preventive effect), read-out: TC50. The protocol:
as §2, §3, §5

Data set [7] in a line: median toxic concentration on MRC-5 cell. The note with it: human, MRC-5 cells, Table 1-2 (therapeutic effect), read-out: TC50 (the source's name). How it is done: as §2, §3, §5
Data set [8] in a line: median toxic concentration on RD cell. As to conditions: human, RD cells; for CC50: read-out: TC50 (the source's name); for CC50 at 2 h: Table 2-2 (preventive effect), read-out: TC50. How it is done: as §2, §3, §5

A word on the IC50: it is the midpoint of a concentration-inhibition curve. `O=C1N=C(NS(=O)(=O)c2cccc3ccccc23)S/C1=C\c1ccc(Cl)cc1Cl` [Compound 1, Naphthalene-1-sulfonic acid [5-(2,4-dichloro-benzylidene)-4-oxo-4,5-dihydro-thiazol-2-yl] amide]: the IC50 in data set [1] was 7.41 µM; in data set [2], above 7.41 µM; in data set [3] (EV71 (SZ-98 strain)), above 7.41 µM; in data set [4], above 7.41 µM; in data set [5] it was above 7.41 µM. Moreover, the CC50 in data set [6] came to 10.7 µM; in data set [7] it was 12.8 µM; in data set [8] (Table 1-3 (therapeutic effect)), 12.8 µM. Moreover, the results for the CC50 at 2 h in data set [6] and in data set [8] were 10.7 µM and 12.8 µM, respectively.
Turning to `COc1cc(/C=C2\SC(NS(=O)(=O)c3cccc4ccccc34)=NC2=O)ccc1O` [Compound 2, Naphthalene-1-sulfonic acid [5-(3-methoxy-4-hydroxy-benzylidene)-4-oxo-4,5-dihydro-thiazol-2-yl] amide], the IC50 in data set [1], in data set [2], in data set [3] (EV71 (SZ-98 strain)), in data set [4] and in data set [5] was above 7.41 µM in each case. Further, the CC50 in data set [6] came out at 12.8 µM; in data set [7], 22.2 µM; in data set [8] (Table 1-3 (therapeutic effect)), 22.2 µM. Besides, the CC50 at 2 h was found to be 12.8 µM in data set [6] and 22.2 µM in data set [8].
For `O=C1N=C(NS(=O)(=O)c2cccc3ccccc23)S/C1=C\c1ccc(Cl)cc1` [Compound 4, Naphthalene-1-sulfonic acid [5-(4-chloro-benzylidene)-4-oxo-4,5-dihydro-thiazol-2-yl] amide], the IC50 is above 2.47 µM in data set [1]; above 7.41 µM in data set [2]; 5.75 µM in data set [3] (EV71 (SZ-98 strain)); 5.75 µM in data set [3] (Enterovirus, EV71); above 2.47 µM in data set [4]; above 7.41 µM in data set [5]. In addition, in data set [3], the “anti-EV71 activity (in words)” value is given as “better anti-EV71 activity”. Further, the CC50 is 4.28 µM in data set [6], 12.8 µM in data set [7] and 12.8 µM in data set [8]. Moreover, the CC50 at 2 h was 4.28 µM in data set [6] and 12.8 µM in data set [8].
In the case of `O=C1N=C(NS(=O)(=O)c2cccc3ccccc23)S/C1=C\c1cccc(O)c1` [Compound 6, Naphthalene-1-sulfonic acid [5-(3-hydroxy-benzylidene)-4-oxo-4,5-dihydro-thiazol-2-yl] amide], the IC50 in data set [1] was above 22.2 µM; in data set [2] it was above 22.2 µM; in data set [3] (EV71 (SZ-98 strain)), 15.4 µM; in data set [4] it was above 22.2 µM; in data set [5], above 22.2 µM. Also, the “anti-EV71 activity (in words)” value in data set [3] is recorded as “better anti-EV71 activity”. Further, the CC50 in data set [6], in data set [7] and in data set [8] (Table 1-3 (therapeutic effect)) was 38.5 µM in each case. Also, the CC50 at 2 h in data set [6] and in data set [8] was 38.5 µM throughout.
For the molecule `COc1ccc(/C=C2\SC(NS(=O)(=O)c3cccc4ccccc34)=NC2=O)cc1O` [Compound 7, Naphthalene-1-sulfonic acid [5-(3-hydroxy-4-methoxy-benzylidene)-4-oxo-4,5-dihydro-thiazol-2-yl] amide], the IC50 is above 2.47 µM in data set [1]; above 2.47 µM in data set [2]; above 0.82 µM in data set [3] (EV71 (SZ-98 strain)); above 2.47 µM in data set [4]; above 0.82 µM in data set [5]. Besides, the CC50 in data set [6] worked out at 7.41 µM; in data set [7], 10.7 µM; in data set [8] (Table 1-3 (therapeutic effect)), 3.56 µM. Further, the CC50 at 2 h in data set [6] was 7.41 µM; in data set [8] it was 3.56 µM.
For `O=C1N=C(NS(=O)(=O)c2cccc3ccccc23)S/C1=C\c1ccc(O)c(Br)c1` [Compound 8, Naphthalene-1-sulfonic acid [5-(3-bromo-4-hydroxy-benzylidene)-4-oxo-4,5-dihydro-thiazol-2-yl] amide], the IC50 was above 7.41 µM in data set [1]; above 2.47 µM in data set [2]; 22.2 µM in data set [3] (EV71 (SZ-98 strain)); above 7.41 µM in data set [4]; above 22.2 µM in data set [5]. The “anti-EV71 activity (in words)” value in data set [3] was “better anti-EV71 activity”. Besides, the CC50 in data set [6] came out at 12.8 µM; in data set [7], 9.54 µM; in data set [8] (Table 1-3 (therapeutic effect)) it was 66.7 µM. Also, the CC50 at 2 h was 12.8 µM in data set [6] and 66.7 µM in data set [8].
Take `COc1cccc(OC)c1/C=C1\SC(NS(=O)(=O)c2cccc3ccccc23)=NC1=O` [Compound 9, Naphthalene-1-sulfonic acid [5-(2,6-dimethoxy-benzylidene)-4-oxo-4,5-dihydro-thiazol-2-yl] amide]: the IC50 in data set [1] was above 22.2 µM; in data set [2] it was above 22.2 µM; in data set [3] (EV71 (SZ-98 strain)) it was above 7.41 µM; in data set [4], above 22.2 µM; in data set [5], above 7.41 µM. Further, the results for the CC50 in data set [6], in data set [7] and in data set [8] (Table 1-3 (therapeutic effect)) were 38.5 µM, 38.5 µM and 12.8 µM, respectively. In addition, the CC50 at 2 h in data set [6] came out at 38.5 µM; in data set [8], 12.8 µM.
On to `O=C1N=C(NS(=O)(=O)c2cccc3ccccc23)S/C1=C\c1ccc(-c2ccccc2)cc1` [Compound 11, Naphthalene-1-sulfonic acid (5-biphenyl-4-yl-methylene-4-oxo-4,5-dihydro-thiazol-2-yl) amide], for which the IC50 was above 0.82 µM in data set [1]; above 7.41 µM in data set [2]; above 22.2 µM in data set [3] (EV71 (SZ-98 strain)); above 0.82 µM in data set [4]; above 22.2 µM in data set [5]. The CC50 in data set [6] amounted to 3.56 µM; in data set [7] it was 32 µM; in data set [8] (Table 1-3 (therapeutic effect)), 46.2 µM. The CC50 at 2 h in data set [6] came out at 3.56 µM; in data set [8], 46.2 µM.
As for `CC(=O)Nc1ccc(/C=C2\SC(NS(=O)(=O)c3cccc4ccccc34)=NC2=O)cc1` [Compound 12, Naphthalene-1-sulfonic acid [5-(4-acetylamino-benzylidene)-4-oxo-4,5-dihydro-thiazol-2-yl] amide], the IC50 in data set [1], in data set [2], in data set [3] (EV71 (SZ-98 strain)), in data set [4] and in data set [5] was above 22.2 µM in each case. Moreover, the CC50 amounted to 32 µM in data set [6], 38.5 µM in data set [7] and 38.5 µM in data set [8] (Table 1-3 (therapeutic effect)). The values for the CC50 at 2 h in data set [6] and in data set [8] were 32 µM and 38.5 µM, respectively.
